Measured values published in patent US6683181B2, “Pyrroloquinolones as antiviral agents” (Pharmacia and Upjohn Comapny, priority 2000, dated 2004).

How the values were obtained:
CMV Polymerase = molecular target: T1, CMV Polymerase (Human cytomegalovirus, UniProt P08546); assay: HCMV polymerase scintillation proximity assay (modified version); format: biochemical; conditions: modified SPA assay; compounds diluted in 100% DMSO; 4.5 mM DTT
T1 construct: made in house; host or cells: recombinant baculovirus-infected SF-9 cells
Method: (§1) The HCMV polymerase assay is performed using a scintillation proximity assay (SPA) as described in several references, such as N. D. Cook, et al., Pharmaceutical Manufacturing International, pages 49-53 (1992); K. Takeuchi, Laboratory Practice, September issue (1992); U.S. Pat. No. 4,568,649 (1986); which are incorporated by reference herein. Reactions are performed in 96-well plates. The assay is conducted in 100 μl volume with 5.4 mM HEPES (pH 7.5), 11.7 mM KCl, 4.5 mM MgCl2, 0.36 mg/ml BSA, and 90 nM ^3H-dTTP. Assays are run with and without CHAPS, (3-[(3-Cholamidopropyl)-dimethylammonio]-1-propane-sulfonate) at a final concentration of 2 mM. HCMV polymerase is diluted in enzyme dilution buffer containing 50% glycerol, 250 mM NaCl, 10 mM HEPES (pH 7.5), 100 μg/ml BSA, and 0.01% sodium azide. The HCMV polymerase, which is expressed in recombinant baculovirus-infected SF-9 cells and purified according to literature procedures, is added at 10% (or 10 μl) of the final reaction volume, i.e., 100 μl. Compounds are diluted in 50% DMSO and 10 μl are added to each well. Control wells contain an equivalent concentration of DMSO. Unless noted otherwise, reactions are initiated via the addition of 6 nM biotinylated poly(dA)-oligo(dT) template/primer to reaction mixtures containing the enzyme, substrate, and compounds of interest. Plates are incubated in a 25° C. or 37° C. H2O bath and terminated via the addition of 40 μl/reaction of 0.5 M EDTA (pH 8) per well. Reactions are terminated within the time-frame during which substrate incorporation is linear and varied depending upon the enzyme and conditions used, i.e., 30 min. for HCMV polymerase. Ten μl of streptavidin-SPA beads (20 mg/ml in PBS/10% glycerol) are added following termination of the reaction. Plates are incubated 10 min. at 37° C., then equilibrated to room temperature, and counted on a Packard Topcount. Linear regressions are performed and IC50's are calculated using computer software.
A modified version of the above HCMV polymerase assay is performed as described above, but with the following changes: Compounds are diluted in 100% DMSO until final dilution into assay buffer. In the previous assay, compounds are diluted in 50% DMSO. 4.5 mM dithiotherotol (DTT) is added to the polymerase buffer.

HSV Polymerase = HSV Polymerase (Human herpesvirus 1, UniProt P04293); assay: HSV polymerase assay; format: biochemical
Method: [Worded in the source for another target; used here, by the source, with some conditions changed.] as §1, with “software. […]” for “software.”

VZV Polymerase = VZV Polymerase (Varicella-zoster virus, UniProt P09252); assay: VZV polymerase assay; format: biochemical
Method: [Worded in the source for another target; used here, by the source, with some conditions changed.] as §1, with “software. […]” for “software.”

HSV Polymerase, sequence (P04293 whole entry): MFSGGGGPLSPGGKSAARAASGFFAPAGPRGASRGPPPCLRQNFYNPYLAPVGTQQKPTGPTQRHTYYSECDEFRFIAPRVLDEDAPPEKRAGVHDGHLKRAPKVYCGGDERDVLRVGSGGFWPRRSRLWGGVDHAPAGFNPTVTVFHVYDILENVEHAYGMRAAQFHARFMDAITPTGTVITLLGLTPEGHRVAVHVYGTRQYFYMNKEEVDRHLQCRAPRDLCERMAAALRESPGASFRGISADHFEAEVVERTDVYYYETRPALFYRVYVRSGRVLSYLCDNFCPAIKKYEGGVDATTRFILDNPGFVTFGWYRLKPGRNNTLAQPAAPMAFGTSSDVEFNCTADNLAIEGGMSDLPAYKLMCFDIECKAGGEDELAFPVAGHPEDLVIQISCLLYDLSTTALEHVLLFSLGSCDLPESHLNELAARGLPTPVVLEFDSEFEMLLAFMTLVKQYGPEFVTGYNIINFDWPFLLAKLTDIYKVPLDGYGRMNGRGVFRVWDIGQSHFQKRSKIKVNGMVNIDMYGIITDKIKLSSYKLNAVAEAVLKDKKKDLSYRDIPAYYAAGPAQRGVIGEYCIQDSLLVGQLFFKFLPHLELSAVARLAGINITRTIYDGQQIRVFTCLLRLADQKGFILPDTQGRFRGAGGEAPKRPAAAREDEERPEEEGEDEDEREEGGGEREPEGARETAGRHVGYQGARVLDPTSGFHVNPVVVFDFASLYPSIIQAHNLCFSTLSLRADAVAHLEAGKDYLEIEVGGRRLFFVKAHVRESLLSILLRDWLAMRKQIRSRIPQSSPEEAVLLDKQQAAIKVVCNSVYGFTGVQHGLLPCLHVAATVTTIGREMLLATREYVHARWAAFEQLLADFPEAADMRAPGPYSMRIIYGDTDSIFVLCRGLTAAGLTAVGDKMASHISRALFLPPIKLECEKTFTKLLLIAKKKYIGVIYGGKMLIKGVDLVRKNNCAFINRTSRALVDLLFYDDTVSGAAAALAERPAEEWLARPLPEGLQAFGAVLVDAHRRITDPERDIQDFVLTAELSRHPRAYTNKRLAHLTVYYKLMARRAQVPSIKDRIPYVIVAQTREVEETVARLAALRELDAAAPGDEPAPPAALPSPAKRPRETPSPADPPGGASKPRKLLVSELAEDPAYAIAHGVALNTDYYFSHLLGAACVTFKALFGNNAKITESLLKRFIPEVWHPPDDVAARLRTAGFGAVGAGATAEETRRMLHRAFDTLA
T1 sequence (P08546 whole entry): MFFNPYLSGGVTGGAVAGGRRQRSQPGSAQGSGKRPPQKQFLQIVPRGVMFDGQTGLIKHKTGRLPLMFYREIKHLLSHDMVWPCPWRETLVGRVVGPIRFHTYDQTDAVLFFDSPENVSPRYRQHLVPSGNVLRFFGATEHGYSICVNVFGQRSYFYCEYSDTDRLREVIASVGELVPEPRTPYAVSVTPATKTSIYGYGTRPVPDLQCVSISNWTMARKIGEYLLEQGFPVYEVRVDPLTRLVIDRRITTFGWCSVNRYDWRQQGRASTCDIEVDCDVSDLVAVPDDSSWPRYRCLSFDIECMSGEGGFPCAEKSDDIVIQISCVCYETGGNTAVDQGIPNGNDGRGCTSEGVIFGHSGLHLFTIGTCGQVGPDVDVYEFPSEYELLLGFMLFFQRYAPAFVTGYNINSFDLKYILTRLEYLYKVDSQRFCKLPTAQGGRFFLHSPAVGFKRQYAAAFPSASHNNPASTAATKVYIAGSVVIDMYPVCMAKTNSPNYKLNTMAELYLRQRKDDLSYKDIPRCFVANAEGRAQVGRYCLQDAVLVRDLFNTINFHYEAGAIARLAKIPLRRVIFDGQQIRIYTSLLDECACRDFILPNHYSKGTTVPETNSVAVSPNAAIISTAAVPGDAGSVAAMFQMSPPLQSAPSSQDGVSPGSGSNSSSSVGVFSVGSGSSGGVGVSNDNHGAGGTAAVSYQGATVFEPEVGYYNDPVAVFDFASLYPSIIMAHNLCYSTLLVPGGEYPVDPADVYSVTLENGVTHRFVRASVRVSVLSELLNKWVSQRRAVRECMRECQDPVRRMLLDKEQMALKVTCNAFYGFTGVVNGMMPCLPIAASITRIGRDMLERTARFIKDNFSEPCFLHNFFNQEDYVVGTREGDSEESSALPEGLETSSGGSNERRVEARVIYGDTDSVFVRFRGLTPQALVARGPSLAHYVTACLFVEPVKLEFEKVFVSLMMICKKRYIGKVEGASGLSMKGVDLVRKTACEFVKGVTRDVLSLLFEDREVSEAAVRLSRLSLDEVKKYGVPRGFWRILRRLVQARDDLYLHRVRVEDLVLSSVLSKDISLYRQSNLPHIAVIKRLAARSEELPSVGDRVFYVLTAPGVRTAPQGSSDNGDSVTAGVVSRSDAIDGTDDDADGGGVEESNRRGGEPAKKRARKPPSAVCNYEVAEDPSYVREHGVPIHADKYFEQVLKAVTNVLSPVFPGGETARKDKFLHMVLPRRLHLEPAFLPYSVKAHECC
VZV Polymerase, sequence (P09252 whole entry): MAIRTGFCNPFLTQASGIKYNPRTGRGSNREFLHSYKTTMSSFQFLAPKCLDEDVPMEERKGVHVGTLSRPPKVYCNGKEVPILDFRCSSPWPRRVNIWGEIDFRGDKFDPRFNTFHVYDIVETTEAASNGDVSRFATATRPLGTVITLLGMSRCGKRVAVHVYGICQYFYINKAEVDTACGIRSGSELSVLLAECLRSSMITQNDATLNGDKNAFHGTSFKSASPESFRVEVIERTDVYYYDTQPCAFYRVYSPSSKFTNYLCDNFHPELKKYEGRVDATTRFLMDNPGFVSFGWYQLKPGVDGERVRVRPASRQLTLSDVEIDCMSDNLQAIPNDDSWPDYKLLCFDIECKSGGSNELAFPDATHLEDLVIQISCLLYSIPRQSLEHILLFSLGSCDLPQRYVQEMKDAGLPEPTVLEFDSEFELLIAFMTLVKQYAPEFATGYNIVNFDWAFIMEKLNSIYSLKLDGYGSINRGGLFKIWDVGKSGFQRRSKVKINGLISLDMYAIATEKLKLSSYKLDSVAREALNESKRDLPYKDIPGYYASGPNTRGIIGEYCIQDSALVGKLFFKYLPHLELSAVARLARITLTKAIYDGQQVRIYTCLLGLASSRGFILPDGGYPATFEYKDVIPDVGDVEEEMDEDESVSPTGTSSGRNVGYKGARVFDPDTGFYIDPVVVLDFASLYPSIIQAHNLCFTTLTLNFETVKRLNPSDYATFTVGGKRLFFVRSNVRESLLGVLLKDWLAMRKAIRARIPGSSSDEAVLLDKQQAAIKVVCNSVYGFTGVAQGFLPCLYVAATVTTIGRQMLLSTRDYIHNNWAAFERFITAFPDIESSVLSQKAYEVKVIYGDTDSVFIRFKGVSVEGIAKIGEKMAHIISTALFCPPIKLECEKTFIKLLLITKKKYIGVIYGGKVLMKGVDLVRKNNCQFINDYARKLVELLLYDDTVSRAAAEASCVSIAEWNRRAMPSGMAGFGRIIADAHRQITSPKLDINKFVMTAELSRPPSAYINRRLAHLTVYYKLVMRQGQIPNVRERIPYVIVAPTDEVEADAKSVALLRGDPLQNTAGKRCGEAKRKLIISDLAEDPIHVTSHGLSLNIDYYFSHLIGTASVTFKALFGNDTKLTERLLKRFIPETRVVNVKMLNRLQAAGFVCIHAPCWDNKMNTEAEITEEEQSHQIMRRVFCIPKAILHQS

Row | Compound | IC50 (CMV Polymerase) [nM] | IC50 (HSV Polymerase) [nM] | IC50 (VZV Polymerase) [nM] | melting point [°C]
1 | CNCc1cc2cc(CN3CCOCC3)cc3c(=O)c(C(=O)NCc4ccc(Cl)cc4)cn1c23 [Example 20, N-(4-Chlorobenzyl)-2-[(methylamino)methyl]-8-(4-morpholinylmethyl)-6-oxo-6H-pyrrolo[3,2,1-ij]quinoline-5-carboxamide] | 490 |  |  | 
2 | O=C(NCc1ccc(Cl)cc1)c1cn2c(CCN3CCCCC3)cc3cc(CN4CCOCC4)cc(c1=O)c32 [Example 10, N-(4-Chlorobenzyl)-8-(morpholin-4-ylmethyl)-6-oxo-2-(2-piperidin-1-ylethyl)-6H-pyrrolo[3,2,1-ij]quinoline-5-carboxamide] | 2300 |  |  | 
3 | O=C(NCc1ccc(Cl)cc1)c1cn2c(CO)cc3cc(CC4CCOCC4)cc(c1=O)c32 [Example 2, N-(4-Chlorobenzyl)-2-(hydroxymethyl)-6-oxo-8-(tetrahydro-2H-pyran-4-ylmethyl)-6H-pyrrolo[3,2,1-ij]quinoline-5-carboxamide] | 210 | 200 | 160 | 196 to 198
4 | CCSCc1cc2cc(CN3CCOCC3)cc3c(=O)c(C(=O)NCc4ccc(Cl)cc4)cn1c23 [Example 18, N-(4-Chlorobenzyl)-2-[(ethylsulfanyl)methyl]-8-(4-morpholinylmethyl)-6-oxo-6H-pyrrolo[3,2,1-ij]quinoline-5-carboxamide] | 580 |  |  | 177 to 178
5 | CN1CCN(CCCc2cc3cc(CN4CCOCC4)cc4c(=O)c(C(=O)NCc5ccc(Cl)cc5)cn2c34)CC1 [Example 9, N-(4-Chlorobenzyl)-2-[3-(4-methylpiperazin-1-yl)propyl]-8-(morpholin-4-ylmethyl)-6-oxo-6H-pyrrolo[3,2,1-ij]quinoline-5-carboxamide] | 3440 |  |  | 
6 | O=C(NCc1ccc(Cl)cc1)c1cn2c(CO)cc3cccc(c1=O)c32 [Example 1, N-(4-Chlorobenzyl)-2-(hydroxymethyl)-6-oxo-6H-pyrrolo[3,2,1-ij]quinoline-5-carboxamide] | 1200 |  |  | 211 to 213
7 | NC(=O)NCc1cc2cc(CN3CCOCC3)cc3c(=O)c(C(=O)NCc4ccc(Cl)cc4)cn1c23 [Example 15, 2-{[(Aminocarbonyl)amino]methyl}-N-(4-chlorobenzyl)-8-(4-morpholinylmethyl)-6-oxo-6H-pyrrolo[3,2,1-ij]quinoline-5-carboxamide] | 410 |  |  | 250 to 252
8 | CCC1CCCCN1CCc1cc2cc(CN3CCOCC3)cc3c(=O)c(C(=O)NCc4ccc(Cl)cc4)cn1c23 (stereo not shown) [Example 8, N-(4-Chlorobenzyl)-2-[2-(2-ethylpiperidin-1-yl)ethyl]-8-(morpholin-4-ylmethyl)-6-oxo-6H-pyrrolo[3,2,1-ij]quinoline-5-carboxamide] | 1920 |  |  | 
9 | O=C(NCc1ccc(Cl)cc1)c1cn2c(CO)cc3cc(CN4CCOCC4)cc(c1=O)c32 [Example 3, N-(4-Chlorobenzyl)-2-(hydroxymethyl)-8-(4-morpholinylmethyl)-6-oxo-6H-pyrrolo[3,2,1-ij]quinoline-5-carboxamide] | 530 | 510 | 250 | 210 to 212
10 | O=C(NCc1ccc(Cl)cc1)c1cn2c(CSc3ccccc3)cc3cc(CN4CCOCC4)cc(c1=O)c32 [Example 19, N-(4-Chlorobenzyl)-8-(4-morpholinylmethyl)-6-oxo-2-[(phenylsulfanyl)methyl]-6H-pyrrolo[3,2,1-ij]quinoline-5-carboxamide] | 680 |  |  | 173 to 175
11 | C[C@@H](O)c1cc2cc(CN3CCOCC3)cc3c(=O)c(C(=O)NCc4ccc(Cl)cc4)cn1c23 [Example 16, N-(4-Chlorobenzyl)-2-[(IR)-1-hydroxyethyl]-8-(4-morpholinylmethyl)-6-oxo-6H-pyrrolo[3,2,1-ij]quinoline-5-carboxamide] | 260 |  |  | 155 to 159
12 | O=C(NCc1ccc(Cl)cc1)c1cn2c(CN3CCS(=O)(=O)CC3)cc3cc(CN4CCOCC4)cc(c1=O)c32 [Example 12, N-(4-Chlorobenzyl)-2-[(1,1-dioxido-4-thiomorpholinyl)methyl]-8-(4-morpholinylmethyl)-6-oxo-6H-pyrrolo[3,2,1-ij]quinoline-5-carboxamide] | 360 |  |  | 236 to 239
13 | O=C(NCc1ccc(Cl)cc1)c1cn2c(CCO)cc3cccc(c1=O)c32 [Example 22, N-(4-Chlorobenzyl)-2-(2-hydroxyethyl)-6-oxo-6H-pyrrolo[3,2,1-ij]quinoline-5-carboxamide] | 1200 |  |  | 190 to 192
14 | CN(C)Cc1cc2cc(CN3CCOCC3)cc3c(=O)c(C(=O)NCc4ccc(Cl)cc4)cn1c23 [Example 21, N-(4-Chlorobenzyl)-2-[(dimethylamino)methyl]-8-(4-morpholinylmethyl)-6-oxo-6H-pyrrolo[3,2,1-ij]quinoline-5-carboxamide] | 620 |  |  | 
15 | CN1CCN(CCc2cc3cc(CN4CCOCC4)cc4c(=O)c(C(=O)NCc5ccc(Cl)cc5)cn2c34)CC1 [Example 7, N-(4-Chlorobenzyl)-2-[2-(4-methylpiperazin-1-yl)ethyl]-8-(morpholin-4-ylmethyl)-6-oxo-6H-pyrrolo[3,2,1-ij]quinoline-5-carboxamide] | 1760 |  |  | 
16 | O=C(NCc1ccc(Cl)cc1)c1cn2c(CCCN3CCOCC3)cc3cc(CN4CCOCC4)cc(c1=O)c32 [Example 11, N-(4-Chlorobenzyl)-8-(morpholin-4-ylmethyl)-2-(3-morpholin-4-ylpropyl)-6-oxo-6H-pyrrolo[3,2,1-ij]quinoline-5-carboxamide] | 3570 |  |  | 
17 | COCc1cc2cc(CN3CCOCC3)cc3c(=O)c(C(=O)NCc4ccc(Cl)cc4)cn1c23 [Example 17, N-(4-Chlorobenzyl)-2-(methoxymethyl)-8-(4-morpholinylmethyl)-6-oxo-6H-pyrrolo[3,2,1-ij]quinoline-5-carboxamide] | 540 |  |  | 157 to 159
18 | CCN(CC)CCc1cc2cc(CN3CCOCC3)cc3c(=O)c(C(=O)NCc4ccc(Cl)cc4)cn1c23 [Example 6, N-(4-Chlorobenzyl)-2-[2-(diethylamino)ethyl]-8-(4-morpholinylmethyl)-6-oxo-6H-pyrrolo[3,2,1-ij]quinoline-5-carboxamide] | 2430 |  |  | 
19 | O=C(NCc1ccc(Cl)cc1)c1cn2c(CCCO)cc3cc(CN4CCOCC4)cc(c1=O)c32 [Example 14, N-(4-Chlorobenzyl)-2-(3-hydroxypropyl)-8-(4-morpholinylmethyl)-6-oxo-6H-pyrrolo[3,2,1-ij]quinoline-5-carboxamide] | 320 |  |  | 171 to 174
20 | O=C(NCc1ccc(Cl)cc1)c1cn2c(CCO)cc3cc(CC4CCOCC4)cc(c1=O)c32 [Example 23, N-(4-Chlorobenzyl)-2-(2-hydroxyethyl)-6-oxo-8-(tetrahydro-2H-pyran-4-ylmethyl)-6H-pyrrolo[3,2,1-ij]quinoline-5-carboxamide] | 130 | 140 | 100 | 204 to 206
21 | O=C(NCc1ccc(Cl)cc1)c1cn2c(CN3CCS(=O)(=O)CC3)c(I)c3cc(CN4CCOCC4)cc(c1=O)c32 [Example 13, N-(4-Chlorobenzyl)-2-[(1,1-dioxido-4-thiomorpholinyl)methyl]-1-iodo-8-(4-morpholinylmethyl)-6-oxo-6H-pyrrolo[3,2,1-ij]quinoline-5-carboxamide] | 840 |  |  | 244 to 246
